Source: patent publication US10392354B2, “Highly selective anti-cancer agents targeting non-small cell lung cancer and other forms of cancer” (The University of Toledo, priority 2013, dated 2019)

Columns and labels:
Type in all cases: cell-based
NCI-H522 cells = experiment: lethality / cell viability of NCI-H522 cells; conditions: for lethality / activity on NCI-H522 cell line: concentration not given
Method: FIGS. 5A-5C: The effect of compound 1f on NCI-H522 cells at 10 μM. […] Interval between images shown is 1 hour.
FIGS. 5A-5C show the effects of 1f on NCI-H522 cells at 10 μM.
The effects of compound 2 on NCI-H522 cells, other cancer cells, and normal cell lines were evaluated. […] FIGS. 3A-3C show the effects of compound 2 on tubulin and mitochondrial function.

tubulin = experiment: cell staining with antibodies to tubulin in NCI-H522 cells; conditions: in interphase or mitosis
Method: (§1) FIGS. 3A-3C: The effect of compound 2 (10 μM) on tubulin and mitochondrial function. […] Arrowheads: two cells that have lost mitochondrial membrane potential; phase contrast indicates these are dead cells.
(§2) The effects of compound 2 on NCI-H522 cells, other cancer cells, and normal cell lines were evaluated. Compound 2 killed NCI-H522 cells at 10 μM. […] FIGS. 3A-3C show the effects of compound 2 on tubulin and mitochondrial function.

mitochondrial potential = experiment: TMRE staining of mitochondrial membrane potential in NCI-H522 cells; conditions: during the death process
Method: as §1, §2

## C#Cc1nc(C2=C(C)C(=O)C(Cc3ccccc3)C2)cs1 (centres unmarked) [Compound 4, 5-benzyl-3-(2-ethynylthiazol-4-yl)-2-methylcyclopent-2-enone]
NCI-H522 cells
  lethality / activity on NCI-H522 cell line: did not compromise

## C#Cc1nc(C2=C(C)[C@@H](O)CC2)cs1 [Compound 2]
tubulin
  effects on tubulin: no overt effects
Mitochondrial potential
  mitochondrial membrane potentials: intact until late in the death process
NCI-H522 cells; 10 μM
  cell killing of NCI-H522 cells: killed

## C#Cc1nc(C2=C(C)C(=O)CC2)cs1 [Compound 3, 3-(2-ethynylthiazol-4-yl)-2-methylcyclopent-2-enone]
NCI-H522 cells
  lethality / activity on NCI-H522 cell line: lethal
